Counter-ions that a name gives are not always drawn.
Assays:
[1] = test system: Klebsiella pneumoniae expressing KPC-1 (CL6569); assay: Antibiotic activity: growth inhibitory concentration (OD600), Klebsiella pneumoniae CL6569; assay type: cell-based; conditions: lowest concentration inhibiting 95% of bacterial growth; in the presence of β lactamase inhibitor Relebactam 4 μg/mL; 35±2° C. for 22 hours; tested range 100 μM to 0.098 μM
Protocol: (§1) Antibiotic Activity: Determination of Growth Inhibitory Concentration
(§2) The concentrations of compounds required to inhibit the growth of various strains of bacteria were determined in an assay that assessed bacterial growth by measuring optical density at 600 nm (OD600). The bacterial strains tested included the clinical strains Escherichia coli expressing NDM-1 (CLB30016), Klebsiella pneumoniae expressing KPC-1 (CL6569), Acinetobacter baumannii expressing TEM-1, AmpC, and Oxa-24/40 (CL6188) and Pseudomonas aeruginosa expressing AmpC (CL5701). All compounds were tested in the presence of a β lactamase inhibitor (BLi, Relebactam) in 384-well microplates. The clinical strains were stored as frozen single use stocks, thawed and diluted into 1.1× cation-adjusted Mueller-Hinton II broth to achieve approximately 2×10^5 CFU/mL. Test compounds were dissolved in DMSO and diluted 1:50 in the assay, resulting in a final concentration range of 100 μM to 0.098 μM. On the day of the assay, 1 μL of test compound was added to the plate followed by 4 μL of 50 μg/mL BLi in MOPS buffer and 45 μL of diluted bacteria. Plates were centrifuged at 1000 rpm for 30 seconds, shaken at approximately 800 rpm for 1 minute, and incubated at 35±2° C. for 22 hours. The concentration of BLi used in the assay was 4 μg/mL. At the end of the incubation, absorbance at 600 nm was determined using a spectrophotometer. Inhibition was quantitated by identifying the lowest concentration of test compound that was required to inhibit 95% of the growth of the bacteria. The results for Examples 1-126 are reported in Table I, expressed as the concentration of compound that inhibited 95% of bacterial growth (Minimum Inhibitory Threshold Concentration; MITC95).

[2] = test system: Pseudomonas aeruginosa expressing AmpC (CL5701); assay: Antibiotic activity: growth inhibitory concentration (OD600), Pseudomonas aeruginosa CL5701; assay type: cell-based; conditions: lowest concentration inhibiting 95% of bacterial growth; in the presence of β lactamase inhibitor Relebactam 4 μg/mL; 35±2° C. for 22 hours; tested range 100 μM to 0.098 μM
Protocol: as §1, §2

**Q.** How did the “KP_CL6569 MITC95” value [1] turn out when `CC1(C)[C@H](NC(=O)/C(=N\O[C@@H](COc2ccc(-c3cn(C[C@@H](O)CN)[n+](CC4CNC4)c3)cc2)C(=O)O)c2csc(N)n2)C(=O)N1OS(=O)(=O)[O-]` [Example 52, (S)-3-((Z)-2-(((S)-2-(4-(1-((S)-3-Amino-2-hydroxypropyl)-2-(azetidin-3-ylmethyl)-1H-pyrazol-2-ium-4-yl)phenoxy)-1-carboxyethoxy)imino)-2-(2-aminothiazol-4-yl)acetamido)-2,2-dimethyl-4-oxoazetidin-1-yl sulfate] was run?
**A.** 0.1953 µM

**Q.** What about the “PA_CL5701 MITC95” value [2] of the same molecule?
**A.** 1.563 µM

**Q.** For `C[n+]1c(N)c(-c2ccc(OC[C@H](O/N=C(\C(=O)N[C@@H]3C(=O)N(OS(=O)(=O)[O-])C3(C)C)c3nc(N)sc3Cl)C(=O)O)cc2)cn1CCCN` [Example 49, (S)-3-((Z)-2-(((S)-2-(4-(3-Amino-1-(3-aminopropyl)-2-methyl-1H-pyrazol-2-ium-4-yl)phenoxy)-1-carboxyethoxy)imino)-2-(2-amino-5-chlorothiazol-4-yl)acetamido)-2,2-dimethyl-4-oxoazetidin-1-yl sulfate], which “KP_CL6569 MITC95” value [1] is on record?
**A.** 0.7813 µM

**Q.** What about the “PA_CL5701 MITC95” value [2] of the same molecule?
**A.** 6.25 µM

**Q.** Which “KP_CL6569 MITC95” value [1] does the source give for `CC1(C)[C@H](NC(=O)/C(=N\O[C@@H](COc2ccc(-n3cc[n+](CCC[N+](C)(C)C)c3)nc2)C(=O)O)c2csc(N)n2)C(=O)N1OS(=O)(=O)O` [Example 110, (S)-3-((Z)-2-(2-aminothiazol-4-yl)-2-(((S)-1-carboxy-2-((6-(3-(3-(trimethylammonio)propyl)-1H-imidazol-3-ium-1-yl)pyridin-3-yl)oxy)ethoxy)imino)acetamido)-2,2-dimethyl-4-oxoazetidin-1-yl sulfate] here?
**A.** 1.563 µM

**Q.** And the “PA_CL5701 MITC95” value [2]?
**A.** 50 µM

**Q.** What does the source list for `CC1(C)[C@H](NC(=O)/C(=N\O[C@@H](COc2ccc(-c3cnn(CC[N+]4(C)CCOCC4)c3)cc2)C(=O)O)c2csc(N)n2)C(=O)N1OS(=O)(=O)O.O=C([O-])C(F)(F)F` [Example 14, 4-(2-(4-(4-((S)-2-((((Z)-1-(2-aminothiazol-4-yl)-2-(((S)-2,2-dimethyl-4-oxo-1-(sulfooxy)azetidin-3-yl)amino)-2-oxoethylidene)amino)oxy)-2-carboxyethoxy)phenyl)-1H-pyrazol-1-yl)ethyl)-4-methylmorpholin-4-ium 2,2,2-trifluoroacetate]?
**A.** KP_CL6569 MITC95 [1]: 0.7813 µM; PA_CL5701 MITC95 [2]: 12.5 µM

**Q.** What does the source list for `C[n+]1cc(-c2ccc(OC[C@](C)(O/N=C(\C(=O)N[C@@H]3C(=O)N(OS(=O)(=O)O)C3(C)C)c3csc(N)n3)C(=O)O)cc2)cn1CCCN` (single isomer, unassigned) [Example 23B, 2,2,2-trifluoroacetate]?
**A.** KP_CL6569 MITC95 [1]: 3.125 µM; PA_CL5701 MITC95 [2]: 25 µM

**Q.** For `CC1(C)[C@H](NC(=O)/C(=N\OC(COc2ccc(C(N)CNC3=NCCN3)cc2)C(=O)O)c2csc(N)n2)C(=O)N1OS(=O)(=O)O` (stereo in doubt) [Example 59, (R)-3-(4-((S)-1-amino-2-((4,5-dihydro-1H-imidazol-2-yl)amino)ethyl)phenoxy)-2-((((Z)-1-(2-aminothiazol-4-yl)-2-(((S)-2,2-dimethyl-4-oxo-1-(sulfooxy)azetidin-3-yl)amino)-2-oxoethylidene)amino)oxy)propanoic acid], which “KP_CL6569 MITC95” value [1] is on record?
**A.** 3.125 µM

**Q.** What about the “PA_CL5701 MITC95” value [2] of the same molecule?
**A.** 12.5 µM

**Q.** `CC1(C)[C@H](NC(=O)/C(=N\O[C@@H](COc2ccc(C(N)CNC3=NCCN3)cc2)C(=O)O)c2csc(N)n2)C(=O)N1OS(=O)(=O)O` (stereo partly drawn) [Example 61, (2S)-3-(4-(1-amino-2-((4,5-dihydro-1H-imidazol-2-yl)amino)ethyl)phenoxy)-2-((((Z)-1-(2-aminothiazol-4-yl)-2-(((S)-2,2-dimethyl-4-oxo-1-(sulfooxy)azetidin-3-yl)amino)-2-oxoethylidene)amino)oxy)propanoic acid] was tested. Which “KP_CL6569 MITC95” value [1] did it give?
**A.** 1.563 µM

**Q.** What about the “PA_CL5701 MITC95” value [2] of the same molecule?
**A.** 12.5 µM

**Q.** Which “KP_CL6569 MITC95” value [1] does the source give for `C[n+]1cc(-c2ccc(OC[C@H](O/N=C(\C(=O)N[C@@H]3C(=O)N(OS(=O)(=O)[O-])C3(C)C)c3nc(N)sc3Cl)C(=O)O)cc2)cn1CCCN` [Example 11, (S)-3-((Z)-2-(2-Amino-5-chlorothiazol-4-yl)-2-(((S)-2-(4-(1-(3-aminopropyl)-2-methyl-1H-pyrazol-2-ium-4-yl)phenoxy)-1-carboxyethoxy)imino)acetamido)-2,2-dimethyl-4-oxoazetidin-1-yl sulfate] here?
**A.** 0.7813 µM

**Q.** What about the “PA_CL5701 MITC95” value [2] of the same molecule?
**A.** 3.125 µM

**Q.** Which results are given for `Cn1c(-c2ccc(OC[C@H](O/N=C(\C(=O)N[C@@H]3C(=O)N(OS(=O)(=O)O)C3(C)C)c3csc(N)n3)C(=O)O)cc2F)cn(CCCN)c1=N` [Example 96, (S)-3-(4-(1-(3-aminopropyl)-2-imino-3-methyl-2,3-dihydro-1H-imidazol-4-yl)-3-fluorophenoxy)-2-((((Z)-1-(2-aminothiazol-4-yl)-2-(((S)-2,2-dimethyl-4-oxo-1-(sulfooxy)azetidin-3-yl)amino)-2-oxoethylidene)amino)oxy)propanoic acid]?
**A.** KP_CL6569 MITC95 [1]: 0.3906 µM; PA_CL5701 MITC95 [2]: 6.25 µM

**Q.** Which results are given for `C[n+]1cc(-c2ccc(OC[C@H](O/N=C(\C(=O)N[C@@H]3C(=O)N(OS(=O)(=O)[O-])C3(C)C)c3csc(N)n3)C(=O)O)cc2)cnc1N(CCN)CC1CNC1` [Example 83, (S)-3-((Z)-2-(((S)-2-(4-(2-((2-aminoethyl)(azetidin-3-ylmethyl)amino)-1-methylpyrimidin-1-ium-5-yl)phenoxy)-1-carboxyethoxy)imino)-2-(2-aminothiazol-4-yl)acetamido)-2,2-dimethyl-4-oxoazetidin-1-yl sulfate]?
**A.** KP_CL6569 MITC95 [1]: 0.1953 µM; PA_CL5701 MITC95 [2]: 1.563 µM

**Q.** What does the source list for `CCOC(=O)[C@H](COc1ccc(-c2cn(CCCN)[n+](C)c2)cc1)O/N=C(\C(=O)N[C@@H]1C(=O)N(OS(=O)(=O)[O-])C1(C)C)c1csc(N)n1` [Example 115, (S)-3-((Z)-2-((((S)-3-(4-(1-(3-aminopropyl)-2-methyl-1H-pyrazol-2-ium-4-yl)phenoxy)-1-ethoxy-1-oxopropan-2-yl)oxy)imino)-2-(2-aminothiazol-4-yl)acetamido)-2,2-dimethyl-4-oxoazetidin-1-yl sulfate]?
**A.** KP_CL6569 MITC95 [1]: 12.5 µM; PA_CL5701 MITC95 [2]: 100 µM

**Q.** `CC1(C)[C@H](NC(=O)/C(=N\O[C@@H](COc2ccc(Nc3cc[n+](CCCN)cc3)nc2)C(=O)O)c2csc(N)n2)C(=O)N1OS(=O)(=O)O` [Example 33, 1-(3-aminopropyl)-4-((5-((S)-2-((((Z)-1-(2-aminothiazol-4-yl)-2-(((S)-2,2-dimethyl-4-oxo-1-(sulfooxy)azetidin-3-yl)amino)-2-oxoethylidene)amino)oxy)-2-carboxyethoxy)pyridin-2-yl)amino)pyridin-1-ium 2,2,2-trifluoroacetate] was tested. Which “KP_CL6569 MITC95” value [1] did it give?
**A.** 0.3906 µM

**Q.** And the “PA_CL5701 MITC95” value [2]?
**A.** 6.25 µM

**Q.** `C[n+]1cc(-c2ccc(OC(CO/N=C(\C(=O)N[C@@H]3C(=O)N(OS(=O)(=O)[O-])C3(C)C)c3csc(N)n3)C(=O)O)cc2)cn1CCCN` (stereo partly drawn) [Example 84, (3S)-3-((2-(4-(1-(3-aminopropyl)-2-methyl-1H-pyrazol-2-ium-4-yl)phenoxy)-2-carboxyethoxy)imino)-2-(2-aminothiazol-4-yl)acetamido)-2,2-dimethyl-4-oxoazetidin-1-yl sulfate] was tested. Which “KP_CL6569 MITC95” value [1] did it give?
**A.** 2.5 µM

**Q.** What about the “PA_CL5701 MITC95” value [2] of the same molecule?
**A.** 40 µM

**Q.** Which “KP_CL6569 MITC95” value [1] does the source give for `C[n+]1cc(-c2ccc(OC[C@H](O/N=C(\C(=O)N[C@@H]3C(=O)N(OS(=O)(=O)[O-])C3(C)C)c3csc(N)n3)C(=O)O)cc2F)cn1C[C@@H](O)CN.O=CO` (single isomer, unassigned) [Example 43] here?
**A.** 0.1953 µM

**Q.** What about the “PA_CL5701 MITC95” value [2] of the same molecule?
**A.** 3.125 µM
